In patent publication US20240157020A1, “SUTURES” (The Queen's University of Belfast, priority 2021, published 2024):
≈ marks a conversion by molar mass, not a printed value. Read-outs that look alike come from different tables or passages of the source.

How the values were obtained:
Format in all cases: cell-based
E. faecalis ATCC 29212 = test: MIC and MBC determination; details: Enterococcus faecalis, ATCC29212
Method: (§1) The antimicrobial activity of the THEDES was also assessed by determining the minimum inhibitory concentration (MIC) and the minimum bactericidal concentration (MBC) of MET, MA and the equimolar THEDES, respectively. Concentrations of 6 mg/mL MET, MA and MET-MA 1:1 were used to determine the MIC and MBC values against gram-positive bacteria E. faecalis, S. epidermidis and S. aureus, and gram-negative bacteria P. aeruginosa, E. coli and K. pneumoniae; results are shown in Table 4.

[1] = tested on: K. pneumoniae ATCC 700603; test: MIC and MBC determination; details: Klebsiella pneumoniae, ATCC700603
Method: as §1

E. coli NCTC 8196 = test: MIC and MBC determination; details: Escherichia coli, NCTC8196
Method: as §1

[2] = tested on: S. aureus NCTC 12493 (MRSA); test: MIC and MBC determination
Method: as §1

P. aeruginosa ATCC 27853 = test: MIC and MBC determination; details: Pseudomonas aeruginosa, ATCC27853
Method: as §1

[3] = tested on: S. epidermidis ATCC 35984; test: MIC and MBC determination; details: Staphylococcus epidermidis, ATCC35984
Method: as §1

P. aeruginosa NCTC 10783 = test: MIC and MBC determination; details: Pseudomonas aeruginosa, NCTC10783
Method: as §1

S. aureus NCTC 10788 = test: MIC and MBC determination
Method: as §1

S. aureus ATCC 29213 = test: MIC and MBC determination
Method: as §1

[4] = tested on: Staphylococcus aureus NCTC 10788; test: Disc diffusion inhibition zone assay; details: gentamicin sulphate 10 mg/mL, THEDES neat, average n = 9 ± S.D.
Method: (§2) The disc diffusion assays were carried out against Staphylococcus aureus (FIG. 7, Gram-positive, frequently found in the upper respiratory tract and on the skin) and Klebsiella pneumoniae (FIG. 8, Gram-negative, facultative anaerobic, typically residing in human intestines and faeces). In general, the calculated inhibition zones of gentamicin sulphate (10 mg/mL) and the neat THEDES were very similar, confirming the antimicrobial activity of the THEDES against both gram-positive and gram-negative bacteria (Table 3).

[5] = tested on: Klebsiella pneumoniae ATCC 700603; test: Disc diffusion inhibition zone assay; details: gentamicin sulphate 10 mg/mL, THEDES neat, average n = 9 ± S.D.
Method: as §2

Pseudomonas aeruginosa = test: Disc diffusion inhibition zone assay; details: gentamicin sulphate 10 mg/mL, THEDES neat, average n = 9 ± S.D.
[6] = Staphylococcus aureus, S. aureus NCTC 12493 (MRSA)
[7] = Staphylococcus aureus, NCTC10788, S. aureus NCTC 10788
[8] = Staphylococcus aureus, ATCC29213, S. aureus ATCC 29213

Compound | MBC (E. faecalis ATCC 29212) [µg/mL] | MIC (E. faecalis ATCC 29212) [µg/mL] | MBC [1] [µg/mL] | MIC [1] [µg/mL] | MBC (E. coli NCTC 8196) [µg/mL] | MIC (E. coli NCTC 8196) [µg/mL] | MBC [2, 6] [µg/mL] | MBC (P. aeruginosa ATCC 27853) [µg/mL] | MIC (P. aeruginosa ATCC 27853) [µg/mL] | MBC [3] [µg/mL] | MIC [3] [µg/mL] | MBC (P. aeruginosa NCTC 10783) [µg/mL] | MIC (P. aeruginosa NCTC 10783) [µg/mL] | MBC (S. aureus NCTC 10788; [7]) [µg/mL] | MBC (S. aureus ATCC 29213; [8]) [µg/mL] | further results
O=C(O)/C=C\C(=O)O [MA, maleic acid] | > 6000 | 6000 (≈ 51.7 mM) | > 6000 | > 6000 | > 6000 | 6000 (≈ 51.7 mM) | > 6000 | > 6000 | 6000 (≈ 51.7 mM) | > 6000 | 6000 (≈ 51.7 mM) | > 6000 | 6000 (≈ 51.7 mM) | > 6000 | > 6000 | MIC ([2]; Staphylococcus aureus, S. aureus NCTC 12493 (MRSA), read-out: MIC): 6000 µg/mL (≈ 51.7 mM); MIC (S. aureus NCTC 10788; Staphylococcus aureus, NCTC10788, S. aureus NCTC 10788, read-out: MIC): 6000 µg/mL (≈ 51.7 mM); MIC (S. aureus ATCC 29213; Staphylococcus aureus, ATCC29213, S. aureus ATCC 29213, read-out: MIC): 6000 µg/mL (≈ 51.7 mM)
Cc1ncc([N+](=O)[O-])n1CCO [MET, metronidazole] | > 6000 | > 6000 | 6000 (≈ 35.1 mM) | 6000 (≈ 35.1 mM) | > 6000 | > 6000 | > 6000 | > 6000 | > 6000 | 3000 (≈ 17.5 mM) | 3000 (≈ 17.5 mM) | > 6000 | > 6000 | > 6000 | > 6000 | MIC ([2]; S. aureus NCTC 12493 (MRSA)): >6000 µg/mL; MIC ([2]; Staphylococcus aureus, methicillin-resistant strain of S. aureus (MRSA), read-out: MIC): > 6000 µg/mL; MIC (S. aureus NCTC 10788; S. aureus NCTC 10788): 6000 µg/mL (≈ 35.1 mM); MIC (S. aureus NCTC 10788; Staphylococcus aureus, NCTC10788, non-methicillin-resistant S. aureus strain, read-out: MIC): 6000 µg/mL (≈ 35.1 mM); MIC (S. aureus ATCC 29213; S. aureus ATCC 29213): 6000 µg/mL (≈ 35.1 mM); MIC (S. aureus ATCC 29213; Staphylococcus aureus, ATCC29213, non-methicillin-resistant S. aureus strain, read-out: MIC): 6000 µg/mL (≈ 35.1 mM)
gentamicin sulphate | – | – | – | – | – | – | – | – | – | – | – | – | – | – | – | ZOI Diameter [4]: 46.09 ± 1.69 mm; ZOI Diameter [5]: 24.13 ± 1.09 mm; ZOI Diameter (Pseudomonas aeruginosa): 26.04 ± 1.75 mm
